The nature of test [1]: viability loss in Vero cells – cytotoxicity control for Vif-APOBEC3G degradation inhibitor project, dose response (AID 1117358). The class given is functional. Conditions: Vero.
In test [2] the target is Heat shock protein HSP 90-alpha (Homo sapiens, UniProt P07900). Description: Luminescence-based dose response biochemical high throughput screening assay for inhibitors of the Heat Shock Protein 90 (HSP90). [Related pubchem assays: 1831 (Summary AID.), 1846 (Confirmation screen.), 1789 (Primary screen.)].
Test [3] deals with T1, Protein Tat (Human immunodeficiency virus type 1 group M subtype B (isolate HXB2)(HIV-1), UniProt P04608).
T1 sequence (P04608 whole entry): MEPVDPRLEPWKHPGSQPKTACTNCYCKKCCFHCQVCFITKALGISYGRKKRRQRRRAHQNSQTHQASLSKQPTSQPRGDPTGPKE
The class given is functional.

Test [4] has as its target Estrogen receptor beta (Homo sapiens, UniProt Q92731).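 Note: recombinant ER-beta bound to coactivator SRC1 peptide in presence of estradiol agonist; inhibitors block coactivator peptide binding and lower the FRET signal.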
Test [5] in a line: reduced cellular PGC1a acetyl-lysine signal – cell-based, cherry-picked samples, dose response (AID 720514).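 Note: potency may reflect raised or lowered acetylation signal.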 The class given is functional.
Test [6] in a line: Luminescent dose response cell-based high throughput screening assay for inhibitors of the Janus kinase 2 mutant JAK2V617F. [Related pubchem assays: 1446 (Primary screen.), 1521 (Confirmation assay.), 1486 (Counter screen.)]. The class given is functional.
Test [7] addresses Large T antigen (Simian virus 40, UniProt P03070). The class given is functional, Betapolyomavirus macacae.
In test [8] the target is Paired box protein Pax-8 (Homo sapiens, UniProt Q06710). As to the kind of experiment: PAX8 transcriptional activity inhibition in RMG-I – RMG-I cells, luciferase, cherry-pick, dose response (AID 687027).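 Note: luciferase reporter driven by Pax8 target thyroperoxidase promoter measured by SteadyGlo luminescence.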 The class given is functional, cell-based.
Sequence of Paired box protein Pax-8 (Q06710 whole entry): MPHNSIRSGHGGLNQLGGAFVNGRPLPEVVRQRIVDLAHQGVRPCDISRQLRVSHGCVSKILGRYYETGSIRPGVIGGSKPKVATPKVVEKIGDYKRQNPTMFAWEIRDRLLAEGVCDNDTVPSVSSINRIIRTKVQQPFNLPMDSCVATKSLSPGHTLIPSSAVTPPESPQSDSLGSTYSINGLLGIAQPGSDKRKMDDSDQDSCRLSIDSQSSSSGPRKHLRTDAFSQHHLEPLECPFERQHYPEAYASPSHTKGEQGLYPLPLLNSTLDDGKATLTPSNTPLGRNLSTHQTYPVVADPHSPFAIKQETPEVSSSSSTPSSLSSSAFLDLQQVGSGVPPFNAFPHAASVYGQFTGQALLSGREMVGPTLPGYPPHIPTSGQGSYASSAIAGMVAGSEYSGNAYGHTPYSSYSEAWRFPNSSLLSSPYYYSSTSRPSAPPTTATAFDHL
The nature of test [9]: OVCAR-3 cell viability loss – plate reader, dry powder samples, PAX8 inhibitor project, dose response (AID 743044). The class given is functional, cell-based.
Test [10] in a line: OVCAR8 cell viability loss – plate reader, dry powder samples, PAX8 project, dose response (AID 743197). The class given is functional, cell-based. The conditions noted are these: OVCAR-8.
The nature of test [11]: toxicity toward immortalized ovarian surface epithelium – cell-based, plate reader, dry powder samples, cytotoxicity control for PAX8 inhibitor project, dose response (AID 743045). The class given is functional.
The nature of test [12]: IGROV1 cell killing – plate reader, dry powder samples, PAX8 inhibitor project, dose response (AID 743043). It is filed as functional, cell-based. The conditions noted are these: IGROV-1.
In test [13] the target is T2, Hexokinase HKDC1 (Homo sapiens, UniProt Q2TB90).
T2 sequence (Q2TB90 whole entry): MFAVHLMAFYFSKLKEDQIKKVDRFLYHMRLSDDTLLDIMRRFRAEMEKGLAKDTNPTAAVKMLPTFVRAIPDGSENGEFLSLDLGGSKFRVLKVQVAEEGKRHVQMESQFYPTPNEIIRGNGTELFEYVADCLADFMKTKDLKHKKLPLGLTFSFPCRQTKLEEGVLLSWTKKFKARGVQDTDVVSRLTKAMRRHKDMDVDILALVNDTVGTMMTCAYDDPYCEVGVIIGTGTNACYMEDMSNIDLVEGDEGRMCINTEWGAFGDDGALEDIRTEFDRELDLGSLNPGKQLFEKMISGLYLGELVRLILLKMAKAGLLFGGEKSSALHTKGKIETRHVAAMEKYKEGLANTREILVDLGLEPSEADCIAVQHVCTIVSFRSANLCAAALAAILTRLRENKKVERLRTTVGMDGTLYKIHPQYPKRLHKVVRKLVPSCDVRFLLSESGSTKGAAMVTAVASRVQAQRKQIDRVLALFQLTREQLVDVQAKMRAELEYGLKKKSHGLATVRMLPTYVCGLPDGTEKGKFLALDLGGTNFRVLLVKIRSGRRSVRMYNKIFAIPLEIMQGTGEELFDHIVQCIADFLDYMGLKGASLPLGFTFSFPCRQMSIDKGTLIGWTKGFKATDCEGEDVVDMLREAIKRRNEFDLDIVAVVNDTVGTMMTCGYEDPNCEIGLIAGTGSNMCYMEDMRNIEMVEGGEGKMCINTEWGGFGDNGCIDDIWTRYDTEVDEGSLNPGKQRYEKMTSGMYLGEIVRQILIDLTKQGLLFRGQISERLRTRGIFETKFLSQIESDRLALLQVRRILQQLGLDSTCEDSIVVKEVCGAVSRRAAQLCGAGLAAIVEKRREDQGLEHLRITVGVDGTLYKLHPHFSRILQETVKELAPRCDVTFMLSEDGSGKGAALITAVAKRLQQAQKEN
Description: inhibition of HKDC1 glucose phosphorylation – biochemical, W721R variant, dose response (AID 504729). The class given is functional.

Test [14] concerns Vero. As to the kind of experiment: viability of Vero cells under compound – cytotoxicity control for flavivirus capping enzyme inhibitors (AID 588742). The conditions noted are these: Chlorocebus sabaeus. The class given is functional.
Test [15] has as its target Genome polyprotein (dengue virus type 2, UniProt P29990). Description: flavivirus cap methylation enzyme inhibition – biochemical, confirmation dose response, primary screen (AID 588689). The class given is functional.
For test [16], the target named is T3, Tyrosyl-DNA phosphodiesterase 2 (Homo sapiens, UniProt O95551).
T3 sequence (O95551 whole entry): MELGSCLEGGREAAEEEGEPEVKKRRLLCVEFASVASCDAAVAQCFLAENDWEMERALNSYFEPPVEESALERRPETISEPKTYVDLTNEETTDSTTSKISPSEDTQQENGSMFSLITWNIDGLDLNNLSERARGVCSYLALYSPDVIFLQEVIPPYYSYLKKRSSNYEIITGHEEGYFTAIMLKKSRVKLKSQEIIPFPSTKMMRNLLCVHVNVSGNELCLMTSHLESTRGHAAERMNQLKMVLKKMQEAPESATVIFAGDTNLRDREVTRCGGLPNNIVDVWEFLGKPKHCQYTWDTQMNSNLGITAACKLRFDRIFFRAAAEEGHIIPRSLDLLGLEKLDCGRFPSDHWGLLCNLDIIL
Description: potency against TDP2 phosphodiesterase activity – biochemical, epi absorbance, IC50, dose response (AID 743297).

The nature of test [17]: Luminescence Cell-Based Dose Response to Identify Activators of Luciferase Translation or Activity in H4-C Neuroglioblastoma Cells. [Related pubchem assays: 1829 (Project Summary), 1814 (Primary HTS)]. The class given is functional.
Test [18] is described as follows: Luminescence Cell-Based Dose Confirmation HTS to Identify Activators of 5'UTR Stem-Loop Driven Alpha-Synuclein mRNA Translation in H4 Neuroglioblastoma Cells. [Related pubchem assays: 1829 (Project Summary), 1814 (Primary HTS)]. It is filed as functional.
A short description of test [19]: Luminescence Cell-Based Dose Response to Identify Activators of 5'UTR Stem-Loop Driven Prion Protein mRNA Translation in H4-C Neuroglioblastoma Cells. [Related pubchem assays: 1829 (Project Summary), 1814 (Primary HTS)]. It is filed as functional.
The subject of test [20] is H4. As to the kind of experiment: Luminescence Cell-Based Dose Response HTS to Identify Activators of 5'UTR Stem-Loop Driven Prion Protein mRNA Translation in H4 Neuroglioblastoma Cells. [Related pubchem assays: 1829 (Project Summary), 1814 (Primary HTS)]. It is filed as functional. Conditions: Homo sapiens.
Test [21] can be described thus: Luminescence Cell-Based Dose Confirmation to Identify Activators of 5'UTR Stem-Loop Driven Alpha-Synuclein mRNA Translation in H4 Neuroglioblastoma Cells. [Related pubchem assays: 1829 (Project Summary), 1814 (Primary HTS)]. The class given is functional.
A short description of test [22]: Luminescence Cell-Based Dose Response HTS to Identify Activators of Luciferase Translation or Activity in H4 […] Cells. [Related pubchem assays: 1829 (Project Summary), 1814 (Primary HTS)]. It is filed as functional.
Test [23] in a line: HEK-293T cell viability reduction – luminescence, B-cell screen hits, cytotoxicity control for BCR NF-kB inhibitor project, dose response (AID 489021).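 Note: HEK-293T cells carrying an NF-kB luciferase reporter; cells exposed to compound for about 14 hours before viability readout.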 The class given is functional, cell-based.
Test [24] in a line: Luminescence-based dose response cell-based high throughput screening assay for cytotoxic compounds using the IEC-6 intestinal epithelial cell line. [Related pubchem assays: 1858 (Summary AID.), 1825 (Counterscreen.), 1907 (Confirmation screen.)]. It is filed as functional.

This note sets out measurements from ChEMBL document CHEMBL1201862, “PubChem BioAssay data set” (2004).

Activity calls are given as the source filed them. A value given as a limit tells only on which side of the number the result lay.

Sequence of Large T antigen (P03070 whole entry): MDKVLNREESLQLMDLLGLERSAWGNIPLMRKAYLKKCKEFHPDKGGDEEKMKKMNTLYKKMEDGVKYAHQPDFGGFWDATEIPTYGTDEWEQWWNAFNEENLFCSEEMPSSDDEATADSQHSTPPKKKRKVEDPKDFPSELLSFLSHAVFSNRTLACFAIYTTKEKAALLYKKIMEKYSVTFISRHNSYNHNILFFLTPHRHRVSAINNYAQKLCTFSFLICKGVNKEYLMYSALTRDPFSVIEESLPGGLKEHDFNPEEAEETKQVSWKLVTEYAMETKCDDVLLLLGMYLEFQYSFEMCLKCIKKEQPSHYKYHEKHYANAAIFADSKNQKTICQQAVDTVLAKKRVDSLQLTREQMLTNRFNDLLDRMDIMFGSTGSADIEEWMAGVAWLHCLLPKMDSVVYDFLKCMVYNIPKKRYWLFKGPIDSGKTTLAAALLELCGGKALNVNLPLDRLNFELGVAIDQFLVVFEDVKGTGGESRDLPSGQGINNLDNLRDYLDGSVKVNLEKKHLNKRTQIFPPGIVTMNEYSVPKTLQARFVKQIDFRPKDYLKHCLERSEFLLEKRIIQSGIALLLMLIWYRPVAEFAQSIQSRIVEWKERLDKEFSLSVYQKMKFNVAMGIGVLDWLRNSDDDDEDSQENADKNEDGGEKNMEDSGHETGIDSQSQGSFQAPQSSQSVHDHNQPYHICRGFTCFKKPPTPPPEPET
Sequence of Genome polyprotein (P29990 2492-3391 limits assumed): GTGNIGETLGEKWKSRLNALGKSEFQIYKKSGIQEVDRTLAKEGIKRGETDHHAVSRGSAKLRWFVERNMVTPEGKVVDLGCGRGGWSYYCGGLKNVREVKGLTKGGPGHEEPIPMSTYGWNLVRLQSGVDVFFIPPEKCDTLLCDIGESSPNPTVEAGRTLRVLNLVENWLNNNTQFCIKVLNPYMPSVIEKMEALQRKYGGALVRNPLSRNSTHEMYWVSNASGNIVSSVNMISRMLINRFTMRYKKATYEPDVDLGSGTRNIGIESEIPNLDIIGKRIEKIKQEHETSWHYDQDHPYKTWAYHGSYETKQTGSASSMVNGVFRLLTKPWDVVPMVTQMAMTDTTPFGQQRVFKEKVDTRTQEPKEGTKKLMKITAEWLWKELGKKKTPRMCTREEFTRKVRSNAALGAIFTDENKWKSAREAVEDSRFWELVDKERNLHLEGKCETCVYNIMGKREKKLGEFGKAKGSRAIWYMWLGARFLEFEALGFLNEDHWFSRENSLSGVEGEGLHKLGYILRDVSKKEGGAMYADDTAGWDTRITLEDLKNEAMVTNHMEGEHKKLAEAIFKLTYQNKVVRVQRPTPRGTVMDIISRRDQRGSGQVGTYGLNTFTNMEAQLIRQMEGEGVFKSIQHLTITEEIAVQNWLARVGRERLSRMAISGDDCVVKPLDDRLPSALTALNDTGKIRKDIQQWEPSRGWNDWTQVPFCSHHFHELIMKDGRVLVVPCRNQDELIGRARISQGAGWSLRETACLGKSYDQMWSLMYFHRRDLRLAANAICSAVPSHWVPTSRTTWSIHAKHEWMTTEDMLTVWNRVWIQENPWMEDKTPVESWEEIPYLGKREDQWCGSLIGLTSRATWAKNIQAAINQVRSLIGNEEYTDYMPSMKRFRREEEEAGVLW
Sequence of Estrogen receptor beta (Q92731 whole entry): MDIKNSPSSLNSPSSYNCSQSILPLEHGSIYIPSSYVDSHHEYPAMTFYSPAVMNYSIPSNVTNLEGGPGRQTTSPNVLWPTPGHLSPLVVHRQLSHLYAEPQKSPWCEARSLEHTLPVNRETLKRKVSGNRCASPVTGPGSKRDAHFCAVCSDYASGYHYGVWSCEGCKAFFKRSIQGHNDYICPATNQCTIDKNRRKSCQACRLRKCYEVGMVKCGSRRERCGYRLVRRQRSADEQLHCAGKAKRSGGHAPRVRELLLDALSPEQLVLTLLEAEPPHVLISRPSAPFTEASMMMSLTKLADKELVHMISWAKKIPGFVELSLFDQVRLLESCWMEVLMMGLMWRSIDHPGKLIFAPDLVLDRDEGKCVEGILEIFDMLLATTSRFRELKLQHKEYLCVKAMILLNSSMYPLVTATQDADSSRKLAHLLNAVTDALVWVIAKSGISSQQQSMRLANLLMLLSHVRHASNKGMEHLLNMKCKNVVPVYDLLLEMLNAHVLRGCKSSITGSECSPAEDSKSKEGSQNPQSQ

Turning to `CC(C)c1ccc(/C=C/C(=O)N2CCc3ccccc3C2)cc1`, the CC50 in [1] is > 40 µM (active).

`COC(=O)c1ccccc1OCCCOc1ccc(C)cc1OC`: the IC50 in test [2] is 0.00405 µM (active).

Turning to `COc1ccc(OC)c(C2C(C(=O)Nc3ccc(F)cc3)=C(C)Nc3nc(CCCO)nn32)c1` (stereo not given), the IC50 in [3] is > 100 µM (active).

`Cc1occc1C(=O)NCCCc1ccccc1`: the IC50 in test [4] was > 50 µM (not active).

For the molecule `C[C@@H]1CCCCO[C@H](CN(C)C(=O)NC2CCCCC2)[C@@H](C)CN([C@@H](C)CO)C(=O)c2cc(NC(=O)NC3CCCCC3)ccc2O1`, the AC50 in test [5] is 26 µM (active).

As for `O=S(=O)(c1cccs1)N1CCN(c2ccc(O)cc2)CC1`, the figures for the IC50 in [6] and in [7] were 2.84 µM (active) and 6.66 µM (active), respectively.

With `O=C(Nc1ccc(C(F)(F)F)cc1)N1C[C@@H]2N[C@H](C1)[C@H]2c1ccc(-c2ccccc2)cc1`, the AC50 in [5] is 5.12 µM (active); in test [8] it was 8.55 µM (active); in test [9], 17.7 µM (active); in test [10], 41 µM (active); in [11], 49.8 µM (active); in test [12], 27.2 µM (active).

As to `Cc1cccc(-n2c3nc(=O)[nH]c(=O)c-3cc3cc([N+](=O)[O-])ccc32)c1`, the IC50 in test [13] is 10.4 µM (active); in test [15], 32.7 µM (active); in test [16], > 128 µM (inactive); in [7], > 100 µM (active). For the same molecule, in test [14], the CC50 was 24.8 µM (active).

Regarding `COc1ccc(C(=O)Nc2cnc3ccccn3c2=O)cc1`, the EC50 in [17] was 0.53 µM (active); in [18], 0.129 µM (active); in [19], 0.755 µM (active); in test [20] it was 38.8 µM (active); in test [21] it was 0.36 µM (active); in [22], < 0.1 µM (active).

For `Cc1noc(C)c1COC(=O)c1cccc(S(=O)(=O)N2CCCCCC2)c1`, in test [1], the CC50 was > 40 µM (active).

As for `CC(C)(C)c1ccc(C(=O)CSc2nc[nH]n2)cc1`, the EC50 is 1.09 µM (active) in test [17]; 3.34 µM (active) in test [18]; 1.13 µM (active) in test [19]; 0.127 µM (active) in [20]; 0.58 µM (active) in test [21]; 88.1 µM (active) in [22].

With `Cc1ccc[n+](-c2[n-]c(=O)sc2C=NNC(=O)c2ccccc2O)c1`, in [1], the CC50 was > 40 µM (active).

Turning to `C#CCSc1nsc(SCC#C)c1C#N`, the IC50 in test [6] was 1.1 µM (active).

`Cc1nn(Cc2ccccc2)c(Cl)c1C(=O)NCCc1ccccc1`: the EC50 is 0.367 µM (active) in test [17]; < 0.1 µM (active) in [18]; 1.07 µM (active) in test [19]; 0.24 µM (active) in test [21]; < 0.1 µM (active) in [22].

On to `Cc1ccc(Nc2nc(N3CCOCC3)nc(N3CCOCC3)n2)cc1C`, for which the IC50 in test [23] was > 80 µM (inactive); in [24], 1.47 µM (active).
